What is called IC50 is the midpoint of a concentration-inhibition curve. Usually EC50 stands for the concentration giving half of the maximal effect. A lower EC50 goes with an effect from little substance.

These results are taken from PMC5392334, “Discovery and characterization of a novel irreversible EGFR mutants selective and potent kinase inhibitor CHMFL-EGFR-26 with a distinct binding mode” (Oncotarget, 2017).

SMILES strings stand for the structures. Where only a bound is given, the exact number is not on record here.

Experiment [1] concerns the target T1, ABL1(T315I)-nonphosphorylated (Homo sapiens, UniProt P00519, T315I).
T1 construct: purchased DiscoveRx KINOMEscan
The experiment is described as follows: KinomeScan. The settings on record: read-out: % control. In kind it is binding.

A further experiment has as its target T2, CAMKK2 (Homo sapiens, UniProt Q96RR4).
T2 construct: purchased DiscoveRx KINOMEscan
The experiment is described as follows: KinomeScan. The settings on record: read-out: % control. In kind it is binding.

The target of another experiment is T3, CLK2 (Homo sapiens, UniProt P49760).
T3 construct: purchased DiscoveRx KINOMEscan
Description: KinomeScan. It is filed as binding. The settings on record: read-out: % control.

A further experiment concerns the target T4, CLK3 (Homo sapiens, UniProt P49761).
T4 construct: purchased DiscoveRx KINOMEscan
Description: KinomeScan. In kind it is binding. The note with it: read-out: % control.

The target in another experiment is T5, EPHA2 (Homo sapiens, UniProt P29317).
T5 construct: purchased DiscoveRx KINOMEscan
Description: KinomeScan. It is filed as binding. The settings on record: read-out: % control.

The target in the next experiment is T6, EPHA7 (Homo sapiens, UniProt Q15375).
T6 construct: purchased DiscoveRx KINOMEscan
The experiment is described as follows: KinomeScan. It is filed as binding. The settings on record: read-out: % control.

The next experiment deals with T7, FLT3(D835Y) (Homo sapiens, UniProt P36888, D835Y).
T7 construct: purchased DiscoveRx KINOMEscan
Description: KinomeScan. In kind it is binding. The note with it: read-out: % control.

For experiment [2], the target named is T8, JAK1(JH1domain-catalytic) (Homo sapiens, UniProt P23458).
T8 construct: JAK1(JH1domain-catalytic); purchased DiscoveRx KINOMEscan
The experiment is described as follows: KinomeScan. The settings on record: read-out: % control. It is filed as binding.

A further experiment deals with T9, JNK2 (Homo sapiens, UniProt P45984).
T9 construct: purchased DiscoveRx KINOMEscan
Description: KinomeScan. In kind it is binding. The note with it: read-out: % control.

For the next experiment, the target named is T10, MTOR (Homo sapiens, UniProt P42345).
T10 construct: purchased DiscoveRx KINOMEscan
Description: KinomeScan. In kind it is binding. The note with it: read-out: % control.

The next experiment concerns the target T11, MYO3B (Homo sapiens, UniProt Q8WXR4).
T11 construct: purchased DiscoveRx KINOMEscan
The experiment is described as follows: KinomeScan. It is filed as binding. The settings on record: read-out: % control.

Another experiment deals with T12, PAK6 (Homo sapiens, UniProt Q9NQU5).
T12 construct: purchased DiscoveRx KINOMEscan
Description: KinomeScan. It is filed as binding. The settings on record: read-out: % control.

Another experiment deals with T13, PKN1 (Homo sapiens, UniProt Q16512).
T13 construct: purchased DiscoveRx KINOMEscan
The experiment is described as follows: KinomeScan. In kind it is binding. The note with it: read-out: % control.

For the next experiment, the target named is T14, PRKCQ (Homo sapiens, UniProt Q04759).
T14 construct: purchased DiscoveRx KINOMEscan
Description: KinomeScan. In kind it is binding. The note with it: read-out: % control.

In experiment [3] the target is T15, RSK3(Kin.Dom.1-N-terminal) (Homo sapiens, UniProt Q15349).
T15 construct: RSK3(Kin.Dom.1-N-terminal); purchased DiscoveRx KINOMEscan
The experiment is described as follows: KinomeScan. The note with it: read-out: % control. It is filed as binding.

The next experiment concerns the target T16, SRPK1 (Homo sapiens, UniProt Q96SB4).
T16 construct: purchased DiscoveRx KINOMEscan
The experiment is described as follows: KinomeScan. In kind it is binding. The settings on record: read-out: % control.

The target in a further experiment is T17, SRPK2 (Homo sapiens, UniProt P78362).
T17 construct: purchased DiscoveRx KINOMEscan
Description: KinomeScan. It is filed as binding. The note with it: read-out: % control.

Another experiment addresses T18, TAOK1 (Homo sapiens, UniProt Q7L7X3).
T18 construct: purchased DiscoveRx KINOMEscan
The experiment is described as follows: KinomeScan. In kind it is binding. The note with it: read-out: % control.

A further experiment concerns the target T19, YANK2 (Homo sapiens, UniProt Q9NY57).
T19 construct: purchased DiscoveRx KINOMEscan
The experiment is described as follows: KinomeScan. It is filed as binding. The note with it: read-out: % control.

For another experiment, the system named is BaF3-IGF1R. Description: Anti-proliferative effects, IGF1R transformed isogenic BaF3 cells. The settings on record: Mus musculus, read-out: IC50 (anti-proliferative; GI50). In kind it is cell-based.
Experiment [4] concerns phosphorylation of STAT3 in HCC827 cells. Description: Signaling pathway examination (immunoblotting). In kind it is cell-based. The note with it: Homo sapiens, 4 hours. The text has this:
We next examined the effects of CHMFL-EGFR-26 on EGFR mediated signaling pathways in NSCLC cell lines with different EGFR mutants. […] As expected, in the EGFR wt expressing NCSCL cell lines A549 and H1355, only autophosphorylation of EGFR was affected and none of the downstream mediators was inhibited.
Cells were then collected and lysed. Phospho-EGF Receptor, Phospho-EGF Receptor (Tyr1068), Stat3, Phospho-Stat3 (Tyr705), AKT, Phospho-AKT (Ser473), Phospho-AKT (Thr308), p44/42 MAPK (Erk1/2), Phospho-p44/42 MAPK (Erk1/2) (Thr202/ Tyr204), p70 S6 Kinase, Phospho-p70 S6 Kinase (Thr389), eIF4E, Phospho-eIF4E (Ser209), 4E-BP1, Phospho-4E-BP1 (Thr37/46) antibody (Cell Signaling Technology) were used for immunoblotting.

The next experiment concerns PC9 tumor xenografts. Description: PC9 cell inoculated xenograft mouse model. In kind it is in vivo, mice. The settings on record: 21-day treatment. The procedure:
Figure 5 Anti-tumor efficacy of CHMFL-EGFR-26 in PC9 cell inoculated xenograft mouse mode Female nu/nu mice bearing established PC9 tumor xenografts were treated with CHMFL-EGFR-26 at 25.0 and 50.0 mg/kg/d, or vehicle. Daily oral administration was initiated when PC9 tumors had reached a size of 200 to 400 mm^3. Each group contained 7 or 8 animals. Data, mean ± SEM. A. Body weight and B. Tumor size measurements from PC9 xenograft mice after CHMFL-EGFR-26 administration. Initial body weight and tumor size were set as 100%. C. Representative photographs of tumors in each group after 25.0 or 50.0 mg/kg/d CHMFL-EGFR-26 or vehicle treatment. D. Comparison of the final tumor weight in each group after 21-day treatment period. Numbers in columns indicate the mean tumor weight in each group. E. Representative micrographs of hematoxylin and eosin (HE), Ki-67, and TUNEL staining of tumor tissues with CHMFL-EGFR-26 treatment compared to the vehicle-treated group. […]
Five-week old female nu/nu mice were purchased from the Shanghai Experimental Center, Chinese Science Academy (Shanghai, China). […] Body weight and tumor growth was measured daily after CHMFL-EGFR-26 treatment. Tumor volumes were calculated as follows: tumor volume (mm^3)= [(W^2 × L)/2] in which width (W) is defined as the smaller of the two measurements and length (L) is defined as the larger of the two measurements.

T9 sequence (P45984 whole entry): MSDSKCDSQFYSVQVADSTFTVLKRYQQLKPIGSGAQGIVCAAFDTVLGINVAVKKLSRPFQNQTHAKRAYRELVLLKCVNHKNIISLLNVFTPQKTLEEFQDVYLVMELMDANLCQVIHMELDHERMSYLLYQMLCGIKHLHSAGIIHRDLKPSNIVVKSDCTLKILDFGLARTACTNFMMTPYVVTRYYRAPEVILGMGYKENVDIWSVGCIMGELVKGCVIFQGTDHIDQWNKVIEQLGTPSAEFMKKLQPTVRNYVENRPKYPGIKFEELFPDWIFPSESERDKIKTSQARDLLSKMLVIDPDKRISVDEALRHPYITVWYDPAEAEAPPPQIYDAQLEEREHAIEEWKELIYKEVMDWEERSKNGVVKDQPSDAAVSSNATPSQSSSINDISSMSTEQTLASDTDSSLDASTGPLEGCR
T13 sequence (Q16512 whole entry): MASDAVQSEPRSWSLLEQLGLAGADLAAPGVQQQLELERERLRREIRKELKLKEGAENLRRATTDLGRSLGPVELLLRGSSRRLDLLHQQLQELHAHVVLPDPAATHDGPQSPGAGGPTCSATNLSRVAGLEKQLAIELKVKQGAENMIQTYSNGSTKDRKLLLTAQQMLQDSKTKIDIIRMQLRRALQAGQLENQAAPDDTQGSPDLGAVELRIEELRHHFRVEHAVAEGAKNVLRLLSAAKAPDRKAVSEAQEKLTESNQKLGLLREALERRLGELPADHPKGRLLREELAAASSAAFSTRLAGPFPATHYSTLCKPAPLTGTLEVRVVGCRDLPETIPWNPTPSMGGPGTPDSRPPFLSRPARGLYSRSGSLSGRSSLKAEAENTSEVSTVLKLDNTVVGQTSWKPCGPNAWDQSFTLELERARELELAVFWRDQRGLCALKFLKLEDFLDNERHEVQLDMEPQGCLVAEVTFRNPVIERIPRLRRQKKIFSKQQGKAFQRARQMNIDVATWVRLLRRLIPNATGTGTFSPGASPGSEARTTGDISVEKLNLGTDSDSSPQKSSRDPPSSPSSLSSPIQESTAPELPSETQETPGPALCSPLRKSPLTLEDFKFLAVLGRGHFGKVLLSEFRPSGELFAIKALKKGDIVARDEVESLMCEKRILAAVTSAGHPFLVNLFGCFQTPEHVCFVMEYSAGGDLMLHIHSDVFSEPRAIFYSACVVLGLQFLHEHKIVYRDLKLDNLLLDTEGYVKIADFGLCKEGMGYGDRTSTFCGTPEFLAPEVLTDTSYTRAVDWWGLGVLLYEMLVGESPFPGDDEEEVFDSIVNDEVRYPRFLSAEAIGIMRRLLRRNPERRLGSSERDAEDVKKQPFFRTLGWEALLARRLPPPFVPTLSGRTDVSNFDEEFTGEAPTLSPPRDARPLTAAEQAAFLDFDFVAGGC
T3 sequence (P49760 whole entry): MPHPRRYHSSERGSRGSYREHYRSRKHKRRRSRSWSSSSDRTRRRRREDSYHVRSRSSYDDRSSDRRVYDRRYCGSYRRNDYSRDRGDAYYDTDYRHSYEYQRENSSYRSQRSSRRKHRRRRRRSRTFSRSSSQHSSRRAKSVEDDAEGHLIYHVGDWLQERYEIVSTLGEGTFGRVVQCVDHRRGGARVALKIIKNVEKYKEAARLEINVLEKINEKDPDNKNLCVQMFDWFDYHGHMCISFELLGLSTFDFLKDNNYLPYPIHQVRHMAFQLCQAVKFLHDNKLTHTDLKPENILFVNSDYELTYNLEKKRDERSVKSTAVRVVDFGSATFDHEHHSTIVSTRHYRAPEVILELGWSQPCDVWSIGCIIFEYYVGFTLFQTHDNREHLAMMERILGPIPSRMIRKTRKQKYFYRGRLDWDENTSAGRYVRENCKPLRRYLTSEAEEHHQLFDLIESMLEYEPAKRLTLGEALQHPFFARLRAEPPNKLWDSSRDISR
T17 sequence (P78362 whole entry): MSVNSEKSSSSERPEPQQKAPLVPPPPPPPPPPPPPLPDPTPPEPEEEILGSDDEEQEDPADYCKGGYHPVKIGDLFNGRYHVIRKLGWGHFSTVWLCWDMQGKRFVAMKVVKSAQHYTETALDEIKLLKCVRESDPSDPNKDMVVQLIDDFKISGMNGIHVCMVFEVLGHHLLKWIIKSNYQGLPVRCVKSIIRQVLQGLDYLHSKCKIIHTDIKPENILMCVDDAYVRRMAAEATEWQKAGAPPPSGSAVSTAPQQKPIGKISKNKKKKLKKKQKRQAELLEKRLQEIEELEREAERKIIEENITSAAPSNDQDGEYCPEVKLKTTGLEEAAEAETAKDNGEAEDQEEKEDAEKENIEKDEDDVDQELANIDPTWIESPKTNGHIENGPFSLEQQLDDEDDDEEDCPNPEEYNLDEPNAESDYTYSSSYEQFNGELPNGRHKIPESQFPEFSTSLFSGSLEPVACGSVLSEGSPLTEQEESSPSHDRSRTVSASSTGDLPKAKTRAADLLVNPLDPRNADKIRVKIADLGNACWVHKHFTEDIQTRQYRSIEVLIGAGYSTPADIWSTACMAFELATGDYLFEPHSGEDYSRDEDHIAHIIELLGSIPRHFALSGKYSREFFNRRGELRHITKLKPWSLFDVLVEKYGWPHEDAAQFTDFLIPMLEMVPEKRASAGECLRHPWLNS
T4 sequence (P49761 whole entry): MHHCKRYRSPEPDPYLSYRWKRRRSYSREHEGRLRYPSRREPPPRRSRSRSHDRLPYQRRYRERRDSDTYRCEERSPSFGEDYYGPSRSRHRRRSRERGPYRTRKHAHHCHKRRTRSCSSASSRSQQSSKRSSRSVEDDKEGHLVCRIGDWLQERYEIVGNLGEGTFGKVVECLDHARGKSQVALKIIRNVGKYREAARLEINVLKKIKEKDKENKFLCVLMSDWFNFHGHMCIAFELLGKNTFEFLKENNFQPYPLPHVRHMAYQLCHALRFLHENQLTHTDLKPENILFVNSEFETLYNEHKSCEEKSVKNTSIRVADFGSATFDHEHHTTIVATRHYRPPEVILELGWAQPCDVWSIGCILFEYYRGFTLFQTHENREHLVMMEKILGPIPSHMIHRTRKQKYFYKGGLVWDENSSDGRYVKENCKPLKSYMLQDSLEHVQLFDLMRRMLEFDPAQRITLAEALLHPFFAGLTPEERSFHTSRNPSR
T19 sequence (Q9NY57 whole entry): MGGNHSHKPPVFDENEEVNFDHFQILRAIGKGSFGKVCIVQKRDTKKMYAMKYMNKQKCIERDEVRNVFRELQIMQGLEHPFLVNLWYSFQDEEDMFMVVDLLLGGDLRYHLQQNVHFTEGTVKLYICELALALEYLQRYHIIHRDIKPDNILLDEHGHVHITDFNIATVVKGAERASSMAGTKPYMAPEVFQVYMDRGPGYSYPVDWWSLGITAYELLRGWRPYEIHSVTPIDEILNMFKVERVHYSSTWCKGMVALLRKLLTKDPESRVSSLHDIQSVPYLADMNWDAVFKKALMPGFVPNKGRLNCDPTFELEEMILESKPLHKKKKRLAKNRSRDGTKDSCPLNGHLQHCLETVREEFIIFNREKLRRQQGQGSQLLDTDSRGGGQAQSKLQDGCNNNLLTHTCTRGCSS
T11 sequence (Q8WXR4 whole entry): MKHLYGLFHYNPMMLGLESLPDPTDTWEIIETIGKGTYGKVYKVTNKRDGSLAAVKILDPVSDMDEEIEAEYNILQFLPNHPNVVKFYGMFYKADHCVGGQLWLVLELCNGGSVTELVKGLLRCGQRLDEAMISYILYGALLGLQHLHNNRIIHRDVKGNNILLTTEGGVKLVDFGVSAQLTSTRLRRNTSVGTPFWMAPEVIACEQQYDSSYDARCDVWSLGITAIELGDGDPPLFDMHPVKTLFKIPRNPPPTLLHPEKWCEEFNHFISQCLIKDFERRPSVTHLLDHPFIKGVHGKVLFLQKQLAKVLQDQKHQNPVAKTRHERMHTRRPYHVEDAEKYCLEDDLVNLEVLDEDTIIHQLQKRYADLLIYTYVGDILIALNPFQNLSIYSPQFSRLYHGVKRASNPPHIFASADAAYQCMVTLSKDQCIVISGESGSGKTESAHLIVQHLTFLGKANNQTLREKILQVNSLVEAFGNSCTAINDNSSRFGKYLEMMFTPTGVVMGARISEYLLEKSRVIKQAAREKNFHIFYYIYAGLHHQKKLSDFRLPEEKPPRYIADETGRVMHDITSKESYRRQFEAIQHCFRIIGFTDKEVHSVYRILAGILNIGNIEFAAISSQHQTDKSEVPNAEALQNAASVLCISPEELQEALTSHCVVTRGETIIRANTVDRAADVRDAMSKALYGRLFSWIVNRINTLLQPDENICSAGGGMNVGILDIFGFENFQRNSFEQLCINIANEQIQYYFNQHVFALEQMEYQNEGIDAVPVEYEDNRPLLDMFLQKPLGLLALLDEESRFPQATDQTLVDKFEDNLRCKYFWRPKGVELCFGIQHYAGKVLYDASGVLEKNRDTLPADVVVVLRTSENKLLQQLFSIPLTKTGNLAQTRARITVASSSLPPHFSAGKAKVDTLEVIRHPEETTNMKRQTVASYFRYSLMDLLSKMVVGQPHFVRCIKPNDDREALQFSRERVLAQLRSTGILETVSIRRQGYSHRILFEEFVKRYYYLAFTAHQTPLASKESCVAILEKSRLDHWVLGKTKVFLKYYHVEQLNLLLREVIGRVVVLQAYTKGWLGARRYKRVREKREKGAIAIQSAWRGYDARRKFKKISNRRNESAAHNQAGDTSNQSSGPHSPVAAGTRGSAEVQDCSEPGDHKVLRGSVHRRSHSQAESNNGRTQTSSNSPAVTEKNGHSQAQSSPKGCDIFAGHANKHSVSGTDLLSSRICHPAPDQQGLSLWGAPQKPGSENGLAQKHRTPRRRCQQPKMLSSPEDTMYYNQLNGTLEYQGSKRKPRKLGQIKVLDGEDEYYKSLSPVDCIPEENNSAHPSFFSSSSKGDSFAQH

`C=CC(=O)N1CCC[C@@H](n2nc(-c3ccc(OCc4cccc(C)n4)c(Cl)c3)c3c(N)ncnc32)C1` [CHMFL-EGFR-26]: the remaining binding at 1 µM in [1] was 100%; on CAMKK2, 75%; at CLK2 it was 96%; at CLK3, 100%; on EPHA2, 100%; at EPHA7 it was 100%. Moreover, the remaining binding at 1 µM at FLT3(D835Y) came to 97%; in experiment [2], 91%; at JNK2, 59%; on MTOR, 100%; on MYO3B it was 98%; on PAK6, 74%. In addition, the remaining binding at 1 µM on PKN1 is 99%; at PRKCQ, 57%; in experiment [3] it was 99%; on SRPK1, 100%; at SRPK2, 100%; on TAOK1 it was 100%. Also, on YANK2, the remaining binding at 1 µM was 5.8%. Further, the IC50 with BaF3-IGF1R amounted to 3.6 µM. The same compound registered a half-maximal effective concentration (EC50) in experiment [4] of less than 0.01 µM. The “Tumor weight (final, mean)” value stood at 0.93 g in the experiment on PC9 tumor xenografts (25 mg/kg/d oral) and 0.68 g in the experiment on PC9 tumor xenografts (50 mg/kg/d oral).
